Here are results for one molecule from patent publication US9221765B2, “Inhibition and dispersion of bacterial biofilms with benzimidazole derivatives” (North Carolina State University, priority 2009, dated 2015).

In assay [1] the test system is vancomycin-resistant Enterococcus faecium (VRE). Put plainly: Inhibition of VRE (E. faecium) biofilm formation (crystal violet). Format: cell-based. The following applies: E. faecium; FeSO4 alone, no test compound. The protocol:
(§1) A dose-response study was then initiated in which both the IC50 and EC50 value of each compound towards the bacterial strains were determined (Table 1). Here, IC50 is defined as the concentration of compound that inhibits 50% biofilm development while EC50 is defined as the concentration of compound that disperses 50% of a pre-formed biofilm.
(§2) Procedure to Determine the Inhibitory Effect of Test Compounds on E. faecium, MRSA, S. epidermidis, PAO1 and MDRAB Biofilm Formation:
(§3) Inhibition assays were performed by taking an overnight culture of bacterial strain and subculturing it at an OD600 of 0.01 into the necessary media (brain heart infusion for E. faecium, tryptic soy broth with a 0.5% glucose supplement (TSBG) for MRSA, Luria-Bertani (LB) media for MDRAB, Luria-Bertani media without NaCl (LBNS) for PAO1 and tryptic soy broth with a 0.5% glucose supplement and a 3.0% NaCl supplement (TGN) for S. epidermidis. Stock solutions of predetermined concentrations of the test compound were then made in the necessary media. These stock solutions were aliquoted (100 μL) into the wells of the 96-well PVC microtiter plate. Sample plates were then wrapped in GLAD Press n′ Seal® followed by an incubation under stationary conditions for 24 h at 37° C. After incubation, the media was discarded from the wells and the plates were washed thoroughly with water. Plates were then stained with 100 μL of 0.1% solution of crystal violet (CV) and then incubated at ambient temperature for 30 min. Plates were washed with water again and the remaining stain was solubilized with 200 μL of 95% ethanol. A sample of 125 μL of solubilized CV stain from each well was transferred to the corresponding wells of a polystyrene microtiter dish. Biofilm inhibition was quantitated by measuring the OD540 of each well in which a negative control lane wherein no biofilm was formed served as a background and was subtracted out.
as §3, with “2-(2-amino-1H-benzo[d]imidazol-6-ylcarbamoyl)-3,4,5,6-tetrachlorobenzoic acid hydrochloride” for “test compound”, “media. Samples were then doped with 10.0 μM FeSO4 with samples with no test compound to examine effects of 10.0 μM FeSO4 on biofilm formation.” for “media.”

For another assay, the system named is S. epidermidis. Put plainly: Inhibition of S. epidermidis biofilm formation (crystal violet). It counts as cell-based, Staphylococcus epidermidis. The following applies: FeSO4 alone, no test compound. The protocol: as §1, §2, §3
as §3, with “2-(2-amino-1H-benzo[d]imidazol-6-ylcarbamoyl)-3,4,5,6-tetrachlorobenzoic acid hydrochloride” for “test compound”, “media. Samples were then doped with 10.0 μM FeSO4 with samples with no test compound to examine effects of 10.0 μM FeSO4 on biofilm formation.” for “media.”

In another assay the test system is MRSA. Put plainly: Inhibition of MRSA biofilm formation (crystal violet). To be noted: FeSO4 alone, no test compound. It counts as cell-based, Staphylococcus aureus.

Regarding `O=S(=O)([O-])[O-].[Fe+2]` [FeSO4, reference compound], the “increase of biofilm formation (biofilm mass)” value in assay [1] is 1.37 times; in the assay with S. epidermidis, 1.25 times; in the assay with MRSA, 1.28 times.
